Pest or weed control and inhibition of growth data for 18 molecules are collected here from patent publication US10501425B2, “Microbiocidal oxadiazole derivatives” (SYNGENTA PARTICIPATIONS AG, priority 2015, dated 2019).

A value given as a limit tells only on which side of the number the result lay.

The subject of one assay is Phakopsora pachyrhizi. Description: Phakopsora pachyrhizi / soybean / leaf disc preventative (Asian soybean rust). The class given is in vivo. The conditions noted are these: foliar, 200 ppm in the applied formulation, soybean leaf disks, compared to untreated, read-out: disease control. The procedure: (§1) Leaf disks or leaf segments of various plant species are cut from plants grown in a greenhouse. The cut leaf disks or segments are placed in multiwell plates (24-well format) onto water agar. The leaf disks are sprayed with a test solution before (preventative) or after (curative) inoculation. Compounds to be tested are prepared as DMSO solutions (max. 10 mg/ml) which are diluted to the appropriate concentration with 0.025% Tween20 just before spraying. The inoculated leaf disks or segments are incubated under defined conditions (temperature, relative humidity, light, etc.) according to the respective test system. A single evaluation of disease level is carried out 3 to 14 days after inoculation, depending on the pathosystem. Percent disease control relative to the untreated check leaf disks or segments is then calculated.
Soybean leaf disks are placed on water agar in multiwell plates (24-well format) and sprayed with the formulated test compound diluted in water. One day after application leaf discs are inoculated by spraying a spore suspension on the lower leaf surface. After an incubation period in a climate cabinet of 24-36 hours in darkness at 20° C. and 75% rh leaf disc are kept at 20° C. with 12 h light/day and 75% rh. The activity of a compound is assessed as percent disease control compared to untreated when an appropriate level of disease damage appears in untreated check leaf disks (12 to 14 days after application).
(§2) The following compounds at 200 ppm in the applied formulation give at least 80% disease control in this test when compared to untreated control leaf disks under the same conditions, which show extensive disease development.

The test system of assay [1] is Glomerella lacenarium (Colletotrichum lagenarium). Briefly: Glomerella lagenarium liquid culture / cucumber / preventative (anthracnose). To be noted: Colletotrichum orbiculare; 20 ppm in the applied formulation; liquid culture (PDB), growth inhibition measured photometrically 3 to 4 days after application; compared to untreated; read-out: disease control. The class given is cell-based. As to the method:
Mycelia fragments or conidia suspensions of a fungus prepared either freshly from liquid cultures of the fungus or from cryogenic storage, are directly mixed into nutrient broth. DMSO solutions of the test compound (max. 10 mg/ml) are diluted with 0.025% Tween20 by a factor of 50 and 10 μl of this solution is pipetted into a microtiter plate (96-well format). The nutrient broth containing the fungal spores/mycelia fragments is then added to give an end concentration of the tested compound. The test plates are incubated in the dark at 24° C. and 96% relative humidity. The inhibition of fungal growth is determined photometrically after 2 to 7 days, depending on the pathosystem, and percent antifungal activity relative to the untreated check is calculated.
Conidia of the fungus from cryogenic storage are directly mixed into nutrient broth (PDB—potato dextrose broth). After placing a (DMSO) solution of test compound into a microtiter plate (96-well format), the nutrient broth containing the fungal spores is added.
The following compounds at 20 ppm in the applied formulation give at least 80% disease control in this test when compared to untreated control under the same conditions, which show extensive disease development.

Assay [2] concerns Puccinia recondita f. Sp. Tritici. Description: Puccinia recondita f. sp. tritici / wheat / leaf disc preventative (brown rust). The assay is classed as in vivo. To be noted: foliar, 200 ppm in the applied formulation, wheat leaf segments cv. Kanzler, preventative (inoculated 1 day after application), compared to untreated, read-out: disease control. The procedure: as §1, with “calculated. Wheat leaf segments cv. Kanzler were placed on agar in multiwell plates (24-well format) and sprayed with the formulated test compound diluted in water. The leaf disks were inoculated with a spore suspension of the fungus 1 day after application. The inoculated leaf segments were incubated at 19° C. and 75% relative humidity (rh) under a light regime of 12 hours light/12 hours darkness in a climate cabinet and the activity of a compound was assessed as percent disease control compared to untreated when an appropriate level of disease damage appears in untreated check leaf segments (7 to 9 days after application). The following compounds at 200 ppm in the applied formulation give at least 80% disease control in this test when compared to untreated control leaf disks under the same conditions, which show extensive disease development.” for “calculated.”

The test system is the same in assay [3]. Description: Puccinia recondita f. sp. tritici / wheat / leaf disc curative (brown rust). The class given is in vivo. The conditions noted are these: foliar, 24 h, 200 ppm in the applied formulation, wheat leaf segments cv. Kanzler, curative (applied 1 day after inoculation), compared to untreated, read-out: disease control. As to the method:
as §1
Wheat leaf segments cv. Kanzler are placed on agar in multiwell plates (24-well format). The leaf segments are then inoculated with a spore suspension of the fungus. Plates were stored in darkness at 19° C. and 75% relative humidity. The formulated test compound diluted in water was applied 1 day after inoculation. The leaf segments were incubated at 19° C. and 75% relative humidity under a light regime of 12 hours light/12 hours darkness in a climate cabinet and the activity of a compound was assessed as percent disease control compared to untreated when an appropriate level of disease damage appears in untreated check leaf segments (6 to 8 days after application).
as §2

Consider `CC(CO)(CCl)C(=O)NCCc1ccc(-c2noc(C(F)(F)F)n2)cc1` (centres unmarked) [Compound 1.88, 2-(chloromethyl)-3-hydroxy-2-methyl-N-[2-[4-[5-(trifluoromethyl)-1,2,4-oxadiazol-3-yl]phenyl]ethyl]propanamide], for which the pest or weed control at 200 ppm in the assay with Phakopsora pachyrhizi is no less than 80%. In addition, in assay [1], the inhibition of growth at 20 ppm is no less than 80%.
Turning to `CC(=O)NCC(=O)NCCc1ccc(-c2noc(C(F)(F)F)n2)cc1` [Compound 1.82, 2-acetamido-N-[2-[4-[5-(trifluoromethyl)-1,2,4-oxadiazol-3-yl]phenyl]ethyl]acetamide], the pest or weed control at 200 ppm in the assay on Phakopsora pachyrhizi was no less than 80%.
Take `COCCCC(=O)NCc1ccc(-c2noc(C(F)(F)F)n2)cc1F` [Compound 1.42, N-[[2-fluoro-4-[5-(trifluoromethyl)-1,2,4-oxadiazol-3-yl]phenyl]methyl]-4-methoxy-butanamide]: the inhibition of growth at 20 ppm in assay [1] was no less than 80%. Further, the pest or weed control at 200 ppm in assay [2] and in assay [3] was no less than 80% throughout.
For the molecule `COCCCC(=O)NCc1ccc(-c2noc(C(F)(F)F)n2)cc1Cl` [Compound 1.60, N-[[2-chloro-4-[5-(trifluoromethyl)-1,2,4-oxadiazol-3-yl]phenyl]methyl]-4-methoxy-butanamide], the inhibition of growth at 20 ppm in assay [1] was no less than 80%. In addition, the pest or weed control at 200 ppm in assay [2] and in assay [3] was no less than 80% in each case.
Turning to `CCC(C)C(=O)NCc1ccc(-c2noc(C(F)(F)F)n2)cn1` (centres unmarked) [Compound 1.71, 2-methyl-N-[[5-[5-(trifluoromethyl)-1,2,4-oxadiazol-3-yl]-2-pyridyl]methyl]butanamide], the inhibition of growth at 20 ppm in assay [1] is no less than 80%. Moreover, the pest or weed control at 200 ppm in assay [2] and in assay [3] was no less than 80% throughout.
With `C=CCOC(=O)NCc1ccc(-c2noc(C(F)(F)F)n2)cn1` [Compound 2.25, allyl N-[[5-[5-(trifluoromethyl)-1,2,4-oxadiazol-3-yl]-2-pyridyl]methyl]carbamate], in assay [1], the inhibition of growth at 20 ppm is no less than 80%. The pest or weed control at 200 ppm in assay [2] and in assay [3] was no less than 80% each time.
`CC(C)C(=O)NCc1ccc(-c2noc(C(F)(F)F)n2)cn1` [Compound 1.66, 2-methyl-N-[[5-[5-(trifluoromethyl)-1,2,4-oxadiazol-3-yl]-2-pyridyl]methyl]propanamide]: the inhibition of growth at 20 ppm in assay [1] was no less than 80%. Moreover, the pest or weed control at 200 ppm in assay [2] and in assay [3] was no less than 80% each time.
For the molecule `O=C(NCc1ccc(-c2noc(C(F)(F)F)n2)cn1)OCCCl` [Compound 2.33, 2-chloroethyl N-[[5-[5-(trifluoromethyl)-1,2,4-oxadiazol-3-yl]-2-pyridyl]methyl]carbamate], the inhibition of growth at 20 ppm in assay [1] was no less than 80%. The pest or weed control at 200 ppm in assay [2] and in assay [3] was no less than 80% in each case.
Turning to `CC(C)(C)COC(=O)NCc1ccc(-c2noc(C(F)(F)F)n2)cc1` [Compound 2.18, 2,2-dimethylpropyl N-[[4-[5-(trifluoromethyl)-1,2,4-oxadiazol-3-yl]phenyl]methyl]carbamate], the inhibition of growth at 20 ppm in assay [1] is no less than 80%. Besides, the pest or weed control at 200 ppm in assay [2] and in assay [3] was no less than 80% throughout.
On to `N#CCC(=O)NCc1ccc(-c2noc(C(F)(F)F)n2)c(F)c1` [Compound 1.43, 2-cyano-N-[[3-fluoro-4-[5-(trifluoromethyl)-1,2,4-oxadiazol-3-yl]phenyl]methyl]acetamide], for which, in assay [1], the inhibition of growth at 20 ppm was no less than 80%. Further, the pest or weed control at 200 ppm in assay [2] and in assay [3] was no less than 80% each time.
With `CC(C)COC(=O)NCc1ccc(-c2noc(C(F)(F)F)n2)cn1` [Compound 2.22, isobutyl N-[[5-[5-(trifluoromethyl)-1,2,4-oxadiazol-3-yl]-2-pyridyl]methyl]carbamate], the inhibition of growth at 20 ppm in assay [1] is no less than 80%. Further, the pest or weed control at 200 ppm in assay [2] and in assay [3] was no less than 80% each time.
Consider `COCCC(=O)NCc1ccc(-c2noc(C(F)(F)F)n2)c(F)c1` [Compound 1.79, N-[[3-fluoro-4-[5-(trifluoromethyl)-1,2,4-oxadiazol-3-yl]phenyl]methyl]-3-methoxy-propanamide], for which the inhibition of growth at 20 ppm in assay [1] was no less than 80%. The pest or weed control at 200 ppm in assay [2] and in assay [3] was no less than 80% in each case.
Turning to `CC(=O)NCc1ccc(-c2noc(C(F)(F)F)n2)cn1` [Compound 1.75, N-[[5-[5-(trifluoromethyl)-1,2,4-oxadiazol-3-yl]-2-pyridyl]methyl]acetamide], in assay [1], the inhibition of growth at 20 ppm is no less than 80%. The pest or weed control at 200 ppm in assay [2] and in assay [3] was no less than 80% in each case.
For the molecule `COCC(=O)NCc1ccc(-c2noc(C(F)(F)F)n2)cn1` [Compound 1.69, 2-methoxy-N-[[5-[5-(trifluoromethyl)-1,2,4-oxadiazol-3-yl]-2-pyridyl]methyl]acetamide], the inhibition of growth at 20 ppm in assay [1] is no less than 80%. For the same molecule, the pest or weed control at 200 ppm in assay [2] and in assay [3] was no less than 80% each time.
For `CCCOC(=O)NCc1ccc(-c2noc(C(F)(F)F)n2)cn1` [Compound 2.20, propyl N-[[5-[5-(trifluoromethyl)-1,2,4-oxadiazol-3-yl]-2-pyridyl]methyl]carbamate], in assay [1], the inhibition of growth at 20 ppm is no less than 80%. The pest or weed control at 200 ppm in assay [2] and in assay [3] was no less than 80% in each case.
As for `O=C(CC(F)(F)F)NCc1ccc(-c2noc(C(F)(F)F)n2)cn1` [Compound 1.74, 3,3,3-trifluoro-N-[(5-[5-(trifluoromethyl)-1,2,4-oxadiazol-3-yl]-2-pyridyl]methyl]propanamide], the inhibition of growth at 20 ppm in assay [1] is no less than 80%. Further, the pest or weed control at 200 ppm in assay [2] and in assay [3] was no less than 80% throughout.
As for `C#CCOC(=O)NCc1ccc(-c2noc(C(F)(F)F)n2)cn1` [Compound 2.35, prop-2-ynyl N-[[5-[5-(trifluoromethyl)-1,2,4-oxadiazol-3-yl]-2-pyridyl]methyl]carbamate], the inhibition of growth at 20 ppm in assay [1] was no less than 80%. Moreover, the pest or weed control at 200 ppm in assay [2] and in assay [3] was no less than 80% throughout.
For `CC#CCOC(=O)NCc1ccc(-c2noc(C(F)(F)F)n2)cc1` [Compound 2.7, but-2-ynyl N-[[4-[5-(trifluoromethyl)-1,2,4-oxadiazol-3-yl]phenyl]methyl]carbamate], the pest or weed control at 200 ppm (in the assay with Phakopsora pachyrhizi; in assay [2]) was no less than 80% each time.
